Columns and labels:
[1] = system: purified bovine brain tubulin; test: Tubulin polymerization assay (light scattering, BK006 kit); format: biochemical; settings: compound at 10 μM; relative to vehicle
In short: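 Purified bovine brain tubulin (3 mg/mL) in PIPES 80 mM pH 6.9, EGTA, MgCl2, 1 mM GTP, 10% glycerol incubated at 37 °C with compound at 10 µM or vehicle (1% DMSO or EtOH). Assembly followed turbidimetrically at 340 nm; values are means of two independent assays.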

HL-60(TB) = test: NCI-60 SRB screen, leukemia; format: cell-based, human; settings: for GI50: Homo sapiens
RPMI-8226 = test: NCI-60 SRB screen, leukemia; format: cell-based, human; settings: RPMI-8226, 48 h; for GI50: Homo sapiens, five dose 0.01–100 µM, read-out: GI50
SR = test: NCI-60 SRB screen, leukemia; format: cell-based, human; settings: 48 h; for GI50: Homo sapiens, five dose 0.01–100 µM, read-out: GI50
HOP-62 = test: NCI-60 SRB screen, non-small cell lung cancer; format: cell-based, human; settings: HOP-62, 48 h; for GI50: Homo sapiens, five dose 0.01–100 µM, read-out: GI50
NCI-H23 = test: NCI-60 SRB screen, non-small cell lung cancer; format: cell-based, human; settings: NCI-H23, 48 h; for GI50: Homo sapiens, five dose 0.01–100 µM, read-out: GI50
COLO 205 = test: NCI-60 SRB screen, colon cancer; format: cell-based, human; settings: COLO 205, 48 h; for GI50: Homo sapiens, five dose 0.01–100 µM, read-out: GI50
HCT-2998 = test: NCI-60 SRB screen, colon cancer; format: cell-based, human; settings: 48 h; for GI50: Homo sapiens, HCT-2998, five dose 0.01–100 µM, read-out: GI50
HCT-116 = test: NCI-60 SRB screen, colon cancer; format: cell-based, human; settings: HCT-116, 48 h; for GI50: Homo sapiens, five dose 0.01–100 µM, read-out: GI50
HT29 = test: NCI-60 SRB screen, colon cancer; format: cell-based, human; settings: HT29, 48 h; for GI50: Homo sapiens, HT-29, five dose 0.01–100 µM, read-out: GI50
SNB-19 = test: NCI-60 SRB screen, CNS cancer; format: cell-based, human; settings: SNB-19, 48 h; for GI50: Homo sapiens, five dose 0.01–100 µM, read-out: GI50
U251 = test: NCI-60 SRB screen, CNS cancer; format: cell-based, human; settings: U251, 48 h; for GI50: Homo sapiens, U-251, five dose 0.01–100 µM, read-out: GI50
PC-3 = test: NCI-60 SRB screen, prostate cancer; format: cell-based, human; settings: PC-3, 48 h; for GI50: Homo sapiens, five dose 0.01–100 µM, read-out: GI50
SK-MEL-5 = test: NCI-60 SRB screen, melanoma; format: cell-based, human; settings: SK-MEL-5, 48 h; for GI50: Homo sapiens, five dose 0.01–100 µM, read-out: GI50
UACC-62 = test: NCI-60 SRB screen, melanoma; format: cell-based, human; settings: UACC-62, 48 h; for GI50: Homo sapiens, five dose 0.01–100 µM, read-out: GI50
IGROV1 = test: NCI-60 SRB screen, ovarian cancer; format: cell-based, human; settings: IGROV1, 48 h; for GI50: Homo sapiens, IGROV-1, five dose 0.01–100 µM, read-out: GI50
OVCAR-3 = test: NCI-60 SRB screen, ovarian cancer; format: cell-based, human; settings: OVCAR-3, 48 h; for GI50: Homo sapiens, five dose 0.01–100 µM, read-out: GI50
OVCAR-5 = test: NCI-60 SRB screen, ovarian cancer; format: cell-based, human; settings: OVCAR-5, 48 h; for GI50: Homo sapiens, five dose 0.01–100 µM, read-out: GI50
SK-OV-3 = test: NCI-60 SRB screen, ovarian cancer; format: cell-based, human; settings: SK-OV-3, 48 h; for GI50: Homo sapiens, five dose 0.01–100 µM, read-out: GI50
786-0 = test: NCI-60 SRB screen, renal cancer; format: cell-based, human; settings: 786-0, 48 h; for GI50: Homo sapiens, five dose 0.01–100 µM, read-out: GI50
A498 = test: NCI-60 SRB screen, renal cancer; format: cell-based, human; settings: A498, 48 h; for GI50: Homo sapiens, five dose 0.01–100 µM, read-out: GI50
CAKI-1 = test: NCI-60 SRB screen, renal cancer; format: cell-based, human; settings: CAKI-1, 48 h; for GI50: Homo sapiens, five dose 0.01–100 µM, read-out: GI50
RXF 393 = test: NCI-60 SRB screen, renal cancer; format: cell-based, human; settings: RXF 393, 48 h; for GI50: Homo sapiens, five dose 0.01–100 µM, read-out: GI50
TK-10 = test: NCI-60 SRB screen, renal cancer; format: cell-based, human; settings: TK-10, 48 h; for GI50: Homo sapiens, five dose 0.01–100 µM, read-out: GI50
HS 578T = test: NCI-60 SRB screen, breast cancer; format: cell-based; settings: Homo sapiens; HS 578T; five dose 0.01–100 µM, 48 h; read-out: GI50
BT-549 = test: NCI-60 SRB screen, breast cancer; format: cell-based, human; settings: BT-549, 48 h; for GI50: Homo sapiens, five dose 0.01–100 µM, read-out: GI50
T-47D = test: NCI-60 SRB screen, breast cancer; format: cell-based, human; settings: T-47D, 48 h; for GI50: Homo sapiens, T47D, five dose 0.01–100 µM, read-out: GI50
[2] = system: MCF-7 human breast cancer cells; test: cells
[3] = HL-60(TB), five dose 0.01–100 µM, 48 h
[4] = MCF7, 72 h, read-out: cell viability

C=C(C)C1C(=O)N(c2cc(OC)c(OC)c(OC)c2)C1c1ccc(OC)cc1 (stereo not drawn) [9h, 4-(4-Methoxyphenyl)-1-(3,4,5-trimethoxyphenyl)-3-(prop-1-en-2-yl)azetidin-2-one]
Fold Reduction in Vmax [1]: 1.81
GI50 (HL-60(TB); [3]): 33.1 nM
GI50 (HL-60(TB); HL-60, NCI screen): < 34 nM
GI50 (RPMI-8226): 39.9 nM
GI50 (SR): 38.5 nM
GI50 (HOP-62): 57.6 nM
GI50 (NCI-H23): 23.7 nM
GI50 (COLO 205): 27.1 nM
GI50 (HCT-2998): 30.7 nM
GI50 (HCT-116): 31.7 nM
GI50 (HT29): 35.4 nM
GI50 (SNB-19): 67.5 nM
GI50 (U251): 36 nM
GI50 (PC-3): 45.3 nM
GI50 (SK-MEL-5): 24.3 nM
GI50 (UACC-62): 39.2 nM
GI50 (IGROV1): 49.9 nM
GI50 (OVCAR-3): 25.4 nM
GI50 (OVCAR-5): 98.3 nM
GI50 (SK-OV-3): 38.1 nM
GI50 (786-0): 44.2 nM
GI50 (A498): 24.3 nM
GI50 (CAKI-1): 83.1 nM
GI50 (RXF 393): 37.5 nM
GI50 (TK-10): 96.5 nM
GI50 (HS 578T): 39.1 nM
GI50 (BT-549): 32.9 nM
GI50 (T-47D): 26500 nM
IC50 ([2]; MCF7, MCF-7): 33 nM

C=C(C)C1C(=O)N(c2cc(OC)c(OC)c(OC)c2)C1c1ccc(OC)c(O)c1 (stereo not drawn) [9q, 4-(3-Hydroxy-4-methoxyphenyl)-1-(3,4,5-trimethoxyphenyl)-3-(prop-1-en-2-yl)azetidin-2-one]
Fold Reduction in Vmax [1]: 4.27
% Growth (HL-60(TB); HL-60(TB), one dose 10 µM, 48 h): -51.24%
GI50 (HL-60(TB); [3]): 21.1 nM
GI50 (HL-60(TB); HL-60, NCI screen): < 34 nM
GI50 (RPMI-8226): 11.1 nM
% Growth (RPMI-8226; one dose 10 µM): 11.06%
GI50 (SR): < 10 nM
% Growth (SR; one dose 10 µM): -2.84%
% Growth (HOP-62; one dose 10 µM): 22.22%
GI50 (HOP-62): 52.1 nM
GI50 (NCI-H23): 23.7 nM
% Growth (NCI-H23; one dose 10 µM): 14.46%
% Growth (COLO 205; one dose 10 µM): -27.00%
GI50 (COLO 205): 284 nM
% Growth (HCT-2998; HCC-2998, one dose 10 µM): -6.59%
GI50 (HCT-2998): 30.1 nM
% Growth (HCT-116; one dose 10 µM): -10.74%
GI50 (HCT-116): 14.9 nM
% Growth (HT29; one dose 10 µM): 2.66%
GI50 (HT29): 187 nM
GI50 (SNB-19): 58.8 nM
% Growth (SNB-19; one dose 10 µM): 37.93%
GI50 (U251): 30.5 nM
% Growth (U251; one dose 10 µM): 9.06%
GI50 (PC-3): 20.1 nM
% Growth (PC-3; one dose 10 µM): 27.31%
GI50 (SK-MEL-5): 12.4 nM
% Growth (SK-MEL-5; one dose 10 µM): -0.90%
GI50 (UACC-62): < 10 nM
% Growth (UACC-62; one dose 10 µM): 38.81%
GI50 (IGROV1): 32.2 nM
% Growth (IGROV1; one dose 10 µM): 29.32%
GI50 (OVCAR-3): 20.7 nM
% Growth (OVCAR-3; one dose 10 µM): -40.14%
GI50 (OVCAR-5): 49.4 nM
% Growth (OVCAR-5; one dose 10 µM): 44.67%
GI50 (SK-OV-3): 30.4 nM
% Growth (SK-OV-3; one dose 10 µM): 8.15%
% Growth (786-0; one dose 10 µM): 4.28%
GI50 (786-0): 26.8 nM
% Growth (A498; one dose 10 µM): -13.19%
GI50 (A498): < 10 nM
% Growth (CAKI-1; one dose 10 µM): 44.03%
GI50 (CAKI-1): 30.8 nM
GI50 (RXF 393): 42.8 nM
% Growth (RXF 393; one dose 10 µM): 18.79%
GI50 (TK-10): 53.4 nM
% Growth (TK-10; one dose 10 µM): 46.63%
GI50 (HS 578T): 10.6 nM
% Growth (BT-549; one dose 10 µM): -9.94%
GI50 (BT-549): 11 nM
GI50 (T-47D): > 100000 nM
% Growth (T-47D; one dose 10 µM): 67.35%
IC50 ([2]; MCF7): 10 nM
IC50 ([2]; MCF7, 72 h): 12 nM
viability at 0.1 µM [2, 4]: 22%
viability at 1 µM [2, 4]: 21%
viability at 10 µM [2, 4]: 11%
